Experimental data published in article PMC10626578, “Designed switch from covalent to non-covalent inhibitors of carboxylesterase Notum activity” (European Journal of Medicinal Chemistry, 2023).
Where a name gives a salt, the structure may show the parent alone.

molecular target: T1, Notum (core, 81–451C330S) (Homo sapiens, UniProt Q6P988, C330S); test: Notum-OPTS biochemical assay, Notum (81–451C330S); details: Table 1; mean ± s.d. of n = 2–6; inactive = <20% inhibition @ 10 μM; >10 = 20–50% inhibition @ 10 μM; 2a covalent, IC50 time-dependant; read-out: Notum IC50
T1 construct: high-throughput biochemical assay with Notum (81–451C330S) and OPTS as a synthetic fluorescent substrate; made in house
T1 sequence (Q6P988 81-451 C330S): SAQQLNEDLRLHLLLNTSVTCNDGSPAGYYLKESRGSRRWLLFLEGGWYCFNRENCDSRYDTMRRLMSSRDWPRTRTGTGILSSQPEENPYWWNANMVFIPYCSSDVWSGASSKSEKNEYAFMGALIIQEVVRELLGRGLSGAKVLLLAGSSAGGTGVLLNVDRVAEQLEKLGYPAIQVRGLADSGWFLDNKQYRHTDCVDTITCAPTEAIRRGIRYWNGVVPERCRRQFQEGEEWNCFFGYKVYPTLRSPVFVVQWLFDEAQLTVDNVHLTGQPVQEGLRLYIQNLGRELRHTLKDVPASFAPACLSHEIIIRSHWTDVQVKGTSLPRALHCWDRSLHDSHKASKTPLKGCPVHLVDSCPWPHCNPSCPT
Protocol: Notum inhibitors 3–5 (Table 1, Table 2, Table 3, Table 4) were either purchased or prepared using established synthetic methods from readily available starting materials (Scheme 1). Where necessary, the synthesis of many of these amines (e.g. 6) have been reported previously and full details of their preparation have been included in the Experimental Section. Notum inhibition activity was determined using the standard Notum-OPTS biochemical assay using IC50 values. These values were used to compare relative activities with covalent inhibitors under carefully regulated assay conditions. […] Selected inhibitors were screened for inhibition of Notum activity in a TCF/LEF Reporter (Luciferase) cell line with exogenous WNT3a and Notum, and soaked into Notum crystals to determine their binding modes and evidence of MoA.
Methods have been described in detail.

IC50	Compound
> 10000 nM	O=C1CCCN1c1ccccc1 [Compound 3g, 1-Phenylpyrrolidin-2-one]
3200 ± 660 nM	CC(=O)N1C(=O)Cc2ccccc21 [Compound 3j, 1-Acetylindolin-2-one]
5300 ± 1200 nM	CC(=O)n1ccc2ccccc21 [Compound 3b, 1-(1H-Indol-1-yl)ethan-1-one]
> 10000 nM	CC(=O)N1CCS(=O)(=O)c2ccccc21 [Compound 3o, 1-(1,1-Dioxido-2,3-dihydro-4H-benzo[b][1,4]thiazin-4-yl)ethan-1-one]
> 10000 nM	CC(=O)N(C)c1ccccc1C [Compound 3h, N-Methyl-N-(o-tolyl)acetamide]
2500 ± 1000 nM	CC(=O)N1CCCc2ccccc21 [Compound 3c, 1-(3,4-Dihydroquinolin-1(2H)-yl)ethan-1-one]
2800 ± 1800 nM	CC(=O)N1CCOc2ccccc21 [Compound 3m, 1-(2,3-Dihydro-4H-benzo[b][1,4]oxazin-4-yl)ethan-1-one]
690 ± 120 nM	CC(=O)N1CC(=O)c2ccccc21 [Compound 3i, 1-Acetylindolin-3-one]
2200 ± 400 nM	CC(=O)N1Cc2ccccc2C1 [Compound 3d, 1-(Isoindolin-2-yl)ethan-1-one]
> 10000 nM	CC(=O)n1ncc2ccccc21 [Compound 3k, 1-(1H-Indazol-1-yl)ethan-1-one]

same assay, conditions: Table 2; mean ± s.d. of n = 4–12; >10 = 20–50% inhibition @ 10 μM; read-out: Notum IC50

IC50	Compound
1400 ± 200 nM	CC(=O)N1CCc2ccc(Cl)cc21 [Compound 4i, 1-(6-Chloroindolin-1-yl)ethan-1-one]
350 ± 40 nM	CC(=O)N1CCc2cc(F)ccc21 [Compound 4s, 1-(5-Fluoroindolin-1-yl)ethan-1-one]
4100 ± 800 nM	CC(=O)N1c2ccccc2C2(C)CC12 (stereo not shown) [Compound 4f, 1-(6b-Methyl-1a,6b-dihydrocyclopropa[b]indol-2(1H)-yl)ethan-1-one]
260 ± 80 nM	CC(=O)N1CC(C)c2ccccc21 (stereo not shown) [Compound 4b, 1-(3-Methylindolin-1-yl)ethan-1-one]
1500 ± 200 nM	CC(=O)N1CCc2c(C#N)cccc21 [Compound 4l, 1-Acetylindoline-4-carbonitrile]
83 ± 16 nM	CC(=O)N1CCc2c(C)cccc21 [Compound 4k, 1-(4-Methylindolin-1-yl)ethan-1-one]
93 ± 2 nM	CC(=O)N1CCc2c(F)cccc21 [Compound 4m, 1-(4-Fluoroindolin-1-yl)ethan-1-one]
520 ± 50 nM	CC(=O)N1CCc2cc(C(F)(F)F)ccc21 [Compound 4u, 1-(5-(Trifluoromethyl)indolin-1-yl)ethan-1-one]
290 ± 140 nM	CC(=O)N1CCc2c(C3CC3)cccc21 [Compound 4p, 1-(4-Cyclopropylindolin-1-yl)ethan-1-one]
> 10000 nM	CC(=O)N1CCc2cc(C#N)ccc21 [Compound 4r, 1-Acetylindoline-5-carbonitrile]
670 ± 70 nM	COc1cccc2c1CCN2C(C)=O [Compound 4n, 1-(4-Methoxyindolin-1-yl)ethan-1-one]
95 ± 14 nM	CC(=O)N1CCc2cc(Cl)ccc21 [Compound 4h, 1-(5-Chloroindolin-1-yl)ethan-1-one]

same assay, conditions: Table 4; mean ± s.d. of n = 4–8; >10 = 20–50% inhibition @ 10 μM; read-out: Notum IC50

IC50	Compound
2100 ± 310 nM	CC12CCC(=O)N1c1ccccc1C2 (stereo not shown) [Compound 5l, 3a-Methyl-3,4-dihydro-2H-pyrrolo[1,2-a]indol-1-one]
> 10000 nM	CCN1CCc2c(Cl)cccc21 [Compound 5o, 4-Chloro-1-ethylindoline hydrochloride]
1600 to 10000 nM	O=C1COCC2Cc3ccccc3N12 (stereo not shown) [Compound 5i, 10,10a-Dihydro-1H-[1,4]oxazino[4,3-a]indol-4(3H)-one]
3600 ± 670 nM	Clc1ccc2c(c1Cl)CCN2 [Compound 5n, 4,5-Dichloroindoline]
1200 ± 400 nM	O=C1CCC2Cc3cc(Cl)ccc3N12 (stereo not shown) [Compound 5j, 7-Chloro-1,2,9,9a-tetrahydro-3H-pyrrolo[1,2-a]indol-3-one]
490 ± 30 nM	O=C1CCC2Cc3c(Cl)cccc3N12 (stereo not shown) [Compound 5k, 8-Chloro-1,2,9,9a-tetrahydro-3H-pyrrolo[1,2-a]indol-3-one]

same assay, conditions: vs 3a; more potent

fold increase in Notum inhibition over 3a	Compound
2 fold	CC(=O)N1CC(C)c2ccccc21 (stereo not shown) [Compound 4b, 1-(3-Methylindolin-1-yl)ethan-1-one]

same assay, conditions: vs 3a; weaker

fold decrease in Notum inhibition compared to 3a	Compound
10 fold	CC(=O)n1ccc2ccccc21 [Compound 3b, 1-(1H-Indol-1-yl)ethan-1-one]
6 fold	CC(=O)N1CCCc2ccccc21 [Compound 3c, 1-(3,4-Dihydroquinolin-1(2H)-yl)ethan-1-one]
